Assay results published in PubChem BioAssay (NCI).
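The concentration for 50% growth inhibition is given as GI50. TGI is the concentration that stops growth completely.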

Key:
Test in all cases: NCI anticancer screen, dose series, 384-well format
[1] = system: 786-0 renal
[2] = system: A498 renal
[3] = system: A549 NSCLC
[4] = system: ACHN renal
[5] = system: BT-549 breast
[6] = system: CAKI-1 renal
[7] = system: CCRF-CEM leukemia
[8] = system: COLO 205 colon
[9] = system: DU-145 prostate
[10] = system: EKVX NSCLC
[11] = system: HCC-2998 colon
[12] = system: HCT-15 colon
[13] = system: HL-60(TB) leukemia
[14] = system: HOP-62 NSCLC
[15] = system: HOP-92 NSCLC
[16] = system: HS 578T breast
[17] = system: HT29 colon
[18] = system: IGROV1 ovarian
[19] = system: K-562 leukemia
[20] = system: KM12 colon
[21] = system: LOX IMVI melanoma
[22] = system: M14 melanoma
[23] = system: MALME-3M melanoma
[24] = system: MCF7 breast
[25] = system: MDA-MB-231 breast
[26] = system: MDA-MB-435 melanoma
[27] = system: MDA-MB-468 breast
[28] = system: MOLT-4 leukemia
[29] = system: NCI-H226 lung
[30] = system: NCI-H23 lung
[31] = system: NCI-H322M lung
[32] = system: NCI-H460 NSCLC
[33] = system: NCI-H522 lung
[34] = system: NCI/ADR-RES ovarian
[35] = system: OVCAR-3 ovarian
[36] = system: OVCAR-4 ovarian
[37] = system: OVCAR-5 ovarian
[38] = system: OVCAR-8 ovarian
[39] = system: PC-3 prostate
[40] = system: RPMI-8226 leukemia
[41] = system: RXF 393 renal
[42] = system: SF-268 CNS
[43] = system: SF-295 CNS
[44] = system: SF-539 CNS
[45] = system: SK-MEL-28 melanoma
[46] = system: SK-MEL-5 melanoma
[47] = system: SK-OV-3 ovarian
[48] = system: SN12C renal
[49] = system: SNB-19 CNS
[50] = system: SNB-75 CNS
[51] = system: SR leukemia
[52] = system: SW-620 colon
[53] = system: T-47D breast
[54] = system: TK-10 renal
[55] = system: UACC-257 melanoma
[56] = system: UACC-62 melanoma
[57] = system: UO-31 renal
[58] = system: HCT-116 colon
[59] = system: SK-MEL-2 melanoma
[60] = system: U251 glioblastoma

## C[C@@H](CO)NC(=O)c1cc(-c2ccc(Cl)cc2)nn(-c2cnn(C)c2)c1=O
[1]
  GI50: 17.1 µM
  TGI: 61.3 µM
[2]
  GI50: 14.4 µM
  TGI: 28.7 µM
[3]
  GI50: 17.7 µM
  TGI: 37.5 µM
[4]
  GI50: 15.5 µM
  TGI: 35.4 µM
[5]
  GI50: 16.1 µM
  TGI: 33.8 µM
[6]
  GI50: 17.7 µM
  TGI: 49.2 µM
[7]
  GI50: 13.4 µM
  TGI: 29.7 µM
[8]
  GI50: 23.7 µM
  TGI: 87.2 µM
[9]
  GI50: 16.9 µM
  TGI: 36 µM
[10]
  GI50: 27.3 µM
  TGI: 77.9 µM
[11]
  GI50: 23.5 µM
  TGI: 53.4 µM
[12]
  GI50: 27.1 µM
  TGI: > 100 µM
[13]
  GI50: 16.5 µM
  TGI: 30.1 µM
[14]
  GI50: 17 µM
  TGI: 40 µM
[15]
  GI50: 10.2 µM
  TGI: 43.7 µM
[16]
  GI50: 17.2 µM
  TGI: 36.9 µM
[17]
  GI50: 25.9 µM
  TGI: > 100 µM
[18]
  GI50: 18.3 µM
  TGI: 42.4 µM
[19]
  GI50: 18.5 µM
  TGI: 34.3 µM
[20]
  GI50: 35.2 µM
  TGI: > 100 µM
[21]
  GI50: 17.1 µM
  TGI: 30.9 µM
[22]
  GI50: 27.1 µM
  TGI: 60.5 µM
[23]
  GI50: 13.4 µM
  TGI: 34.1 µM
[24]
  GI50: 15.8 µM
  TGI: 29.4 µM
[25]
  GI50: 30 µM
  TGI: > 100 µM
[26]
  GI50: 27.7 µM
  TGI: 80.1 µM
[27]
  GI50: 16.7 µM
  TGI: 32 µM
[28]
  GI50: 1.87 µM
  TGI: 3.63 µM
[29]
  GI50: 16.8 µM
  TGI: 35 µM
[30]
  GI50: 24.8 µM
  TGI: 60.7 µM
[31]
  GI50: 23.5 µM
  TGI: 64 µM
[32]
  GI50: 13.8 µM
  TGI: 33.4 µM
[33]
  GI50: 16.9 µM
  TGI: 31.2 µM
[34]
  GI50: 19.3 µM
  TGI: 44.4 µM
[35]
  GI50: 22.6 µM
  TGI: 50.7 µM
[36]
  GI50: 25.5 µM
  TGI: 69.6 µM
[37]
  GI50: 32.2 µM
  TGI: > 100 µM
[38]
  GI50: 23.7 µM
  TGI: 95.9 µM
[39]
  GI50: 24.4 µM
  TGI: 62.7 µM
[40]
  GI50: 13.8 µM
  TGI: 27 µM
[41]
  GI50: 15.2 µM
  TGI: 53.4 µM
[42]
  GI50: 22.6 µM
  TGI: 70.7 µM
[43]
  GI50: 18.5 µM
  TGI: 41.2 µM
[44]
  GI50: 19.4 µM
  TGI: 51.7 µM
[45]
  GI50: 21.9 µM
  TGI: 49.7 µM
[46]
  GI50: 12.6 µM
  TGI: 25.3 µM
[47]
  GI50: 27.3 µM
  TGI: 72.7 µM
[48]
  GI50: 24.3 µM
  TGI: 78.6 µM
[49]
  GI50: 27.8 µM
  TGI: 88.5 µM
[50]
  GI50: 25.8 µM
  TGI: 93.1 µM
[51]
  GI50: 10.7 µM
  TGI: 22.7 µM
[52]
  GI50: 38.8 µM
  TGI: > 100 µM
[53]
  GI50: 26.9 µM
  TGI: 67.9 µM
[54]
  GI50: 16.7 µM
  TGI: 63.3 µM
[55]
  GI50: 24.9 µM
  TGI: 40.1 µM
[56]
  GI50: 11.5 µM
  TGI: 23.7 µM
[57]
  GI50: 27.1 µM
  TGI: > 100 µM

## O=C1C=CC(Nc2ccccc2[N+](=O)[O-])C1Nc1ccccc1[N+](=O)[O-] (centres undefined)
[1]
  GI50: 1.78 µM
  TGI: 3.32 µM
[2]
  GI50: 2.01 µM
  TGI: 3.8 µM
[3]
  GI50: 3.54 µM
  TGI: 11.8 µM
[4]
  GI50: 1.62 µM
  TGI: 3.01 µM
[5]
  GI50: 1.58 µM
  TGI: 3.08 µM
[6]
  GI50: 1.29 µM
  TGI: 2.58 µM
[7]
  GI50: 0.386 µM
  TGI: 1.35 µM
[8]
  GI50: 1.91 µM
  TGI: 3.37 µM
[9]
  GI50: 4.87 µM
  TGI: 15.7 µM
[10]
  GI50: 3.02 µM
  TGI: 8.07 µM
[11]
  GI50: 2.05 µM
  TGI: 4.78 µM
[58]
  GI50: 1.32 µM
  TGI: 2.64 µM
[12]
  GI50: 1.56 µM
  TGI: 2.94 µM
[13]
  GI50: 0.148 µM
  TGI: 0.281 µM
[14]
  GI50: 2.3 µM
  TGI: 3.94 µM
[15]
  GI50: 2 µM
  TGI: 3.57 µM
[16]
  GI50: 1.84 µM
  TGI: 3.42 µM
[17]
  GI50: 1.62 µM
  TGI: 3.15 µM
[18]
  GI50: 2.02 µM
  TGI: 4.16 µM
[19]
  GI50: 4.85 µM
  TGI: 15 µM
[20]
  GI50: 2.12 µM
  TGI: 5.95 µM
[21]
  GI50: 1.84 µM
  TGI: 3.47 µM
[22]
  GI50: 1.71 µM
  TGI: 3.16 µM
[23]
  GI50: 2.27 µM
  TGI: 3.74 µM
[24]
  GI50: 1.64 µM
  TGI: 3.04 µM
[26]
  GI50: 2.4 µM
  TGI: 5.28 µM
[27]
  GI50: 0.51 µM
  TGI: 0.967 µM
[28]
  GI50: 0.344 µM
  TGI: 1.09 µM
[29]
  GI50: 1.53 µM
  TGI: 2.93 µM
[30]
  GI50: 1.98 µM
  TGI: 3.62 µM
[31]
  GI50: 13.8 µM
  TGI: 26.9 µM
[32]
  GI50: > 100 µM
  TGI: > 100 µM
[33]
  GI50: 1.39 µM
  TGI: 2.69 µM
[34]
  GI50: 2.78 µM
  TGI: 5.64 µM
[35]
  GI50: 1.52 µM
  TGI: 2.87 µM
[36]
  GI50: 1.78 µM
  TGI: 3.34 µM
[38]
  GI50: 1.66 µM
  TGI: 3.06 µM
[39]
  GI50: 1.58 µM
  TGI: 2.96 µM
[40]
  GI50: 0.222 µM
  TGI: 0.41 µM
[41]
  GI50: 1.71 µM
  TGI: 3.11 µM
[42]
  GI50: 2.34 µM
  TGI: 4.42 µM
[43]
  GI50: 19.5 µM
  TGI: 34.6 µM
[44]
  GI50: 1.59 µM
  TGI: 2.95 µM
[59]
  GI50: 0.445 µM
  TGI: 1.29 µM
[45]
  GI50: 1.95 µM
  TGI: 3.41 µM
[46]
  GI50: 1.75 µM
  TGI: 3.2 µM
[47]
  GI50: 4.5 µM
  TGI: 15.9 µM
[48]
  GI50: 1.76 µM
  TGI: 3.15 µM
[49]
  GI50: 5.2 µM
  TGI: 15.6 µM
[50]
  GI50: 4.16 µM
  TGI: 10.1 µM
[52]
  GI50: 1.73 µM
  TGI: 3.15 µM
[54]
  GI50: 1.65 µM
  TGI: 3.03 µM
[60]
  GI50: 2.11 µM
  TGI: 3.78 µM
[55]
  GI50: 1.83 µM
  TGI: 3.23 µM
[56]
  GI50: 1.68 µM
  TGI: 3.1 µM
